Broadly, the IC50 is the point on the concentration scale where inhibition reaches its midpoint.

Where a name gives a salt, the structure may show the parent alone.

For series [1] the following is noted: estimated, background; cited from earlier work.
For series [2], the system named is NMDA receptor. Nature of the series: Patch clamp electrophysiological functional response, NMDA receptor inhibition. Type of series: cell-based. As to conditions: cultural hippocampal rat neurons. A general note: The patch-clamp technique gives a direct electrical read-out from membranes.
The conditions of series [3]: fraction of ketamine activity; cited from earlier work.
The nature of series [4]: Metabolic stability in rat liver microsomes. As to conditions: NADPH regenerating system, 0 to 60 min. In general terms: Microsomes from liver hold many membrane-bound enzymes, among them those of drug oxidation.
Series [5] can be described thus: Pharmacokinetics of deuterated norketamines in rats (tail vein injection). The conditions noted are these: 0.8 mg/kg, injection into the tail vein.
Protocol: Pharmacokinetics of the deuterated norketamines is studied in rats. […] The terminal half-lives are calculated by fitting the data points using a WinNonLin software package.
For series [6] the following is noted: cited from earlier work.

Regarding `CNC1(c2ccccc2Cl)CCCCC1=O` (racemic) [ketamine, (R,S)-2-(2-chlorophenyl)-2-(methylamino) cyclohexanone], the elimination half-life in series [1] is 2 to 3 h. The IC50 in series [2] came to 2.2 µM.
`NC1(c2ccccc2Cl)CCCCC1=O` (racemic) [norketamine, (R,S)-2-(2-chlorophenyl)-2-(amino) cyclohexanone]: the “activity as compared with ketamine” value in series [3] was “roughly one third”. In addition, half-maximal inhibition in series [2] (IC50) required 14.7 µM.
In the case of `[2H]C1([2H])CCCC(N)(c2ccccc2Cl)C1=O` (centres unmarked) [compound 11], the IC50 in series [2] is 25.9 µM. Further, the “increase in half-life compared to non-deuterated norketamine” value in series [4] is listed as “about 80%”. Moreover, the “increase of terminal half-life vs norketamine” value in series [5] is given as around 40%.
In the case of `CNC1(c2ccccc2Cl)CCCCC1=O` (centres unmarked) [ketamine hydrochloride], in series [6], the solubility in water result was “about 200 mg/ml”.

Values taken from US11613515B2, “Neuro-attenuating ketamine and norketamine compounds, derivatives thereof, and methods” (Amorsa Therapeutics, Inc., priority 2014, dated 2023).
